Results as given in PMC4767422, “Molecular insights into the enzymatic diversity of flavin‐trafficking protein (Ftp; formerly ApbE) in flavoprotein biogenesis in the bacterial periplasm” (MicrobiologyOpen, 2015).
Residue numbers refer to the chain shown, from its start.

Assays:
Ftp_Ec [1] = target: T1, Ftp_Ec (Escherichia coli, UniProt P0AB85, Y79N); assay: crystal structure, […]-1.[…] A; also inhibits FAD pyrophosphatase activity; assay type: binding; conditions: two Mg2+ bound; active site
T1 construct: gene apbE; recombinant, ligand-free preparation as in Deka et al. 2013a; signal peptide removed; crystal model residues about 12-341
T1 sequence (P0AB85 21-351 Y79N): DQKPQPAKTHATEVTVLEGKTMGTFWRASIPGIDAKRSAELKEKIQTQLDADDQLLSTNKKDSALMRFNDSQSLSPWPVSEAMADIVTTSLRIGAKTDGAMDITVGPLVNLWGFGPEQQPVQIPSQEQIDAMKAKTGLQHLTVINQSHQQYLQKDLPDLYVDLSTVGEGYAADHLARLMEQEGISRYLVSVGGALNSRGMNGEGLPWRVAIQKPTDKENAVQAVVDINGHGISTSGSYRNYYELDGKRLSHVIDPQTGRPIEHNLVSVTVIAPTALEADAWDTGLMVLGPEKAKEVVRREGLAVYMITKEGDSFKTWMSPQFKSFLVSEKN

Ftp_Ec [2] = target: T2, Ftp_Ec (Escherichia coli, UniProt P0AB85); assay: fluorescence decrease on FAD binding; flavinylation gel; assay type: biochemical; conditions: binds FAD without hydrolysis; FMN donor to RnfG_Ec with 5 mM MgCl2, pH 7.5
T2 construct: gene apbE; recombinant, ligand-free preparation as in Deka et al. 2013a; signal peptide removed; crystal model residues about 12-341
T2 sequence (P0AB85 21-351): T1 sequence (P0AB85 21-351 Y79N) with N59Y

Ftp_Lm = target: T3, Ftp_Lm (Listeria monocytogenes, UniProt A0A0H3GJF7); assay: FAD pyrophosphatase assay, FMN fluorescence; assay type: biochemical; conditions: 10 uM FAD, 5 mM MgCl2, pH 7.5; single turnover
T3 construct: gene LMRG_02181; residues 22-361, signal peptide and acylated Cys removed, N-terminal TEV-cleavable His6 tag (pSpeedET), E. coli
T3 sequence (A0A0H3GJF7 21-360): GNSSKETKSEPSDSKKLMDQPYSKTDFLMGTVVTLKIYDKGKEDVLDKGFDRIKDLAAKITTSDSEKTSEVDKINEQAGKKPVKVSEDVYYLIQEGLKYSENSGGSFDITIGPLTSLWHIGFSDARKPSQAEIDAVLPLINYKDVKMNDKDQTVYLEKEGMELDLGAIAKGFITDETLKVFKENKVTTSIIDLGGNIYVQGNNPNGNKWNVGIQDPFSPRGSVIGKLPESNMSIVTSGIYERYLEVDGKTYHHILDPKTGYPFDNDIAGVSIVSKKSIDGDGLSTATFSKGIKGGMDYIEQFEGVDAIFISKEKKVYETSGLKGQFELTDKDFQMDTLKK

Ftp_Hd = target: T4, Ftp_Hd ([Haemophilus] ducreyi, UniProt Q7VNU3); assay: UV-visible spectrum of protein as isolated; assay type: binding; conditions: co-purified flavin, nonstoichiometric; buffer A, pH 7.5
T4 construct: gene apbE; residues 17-343, signal peptide and acylated Cys removed, N-terminal TEV-cleavable His6 tag (pSpeedET), E. coli
T4 sequence (Q7VNU3 16-342): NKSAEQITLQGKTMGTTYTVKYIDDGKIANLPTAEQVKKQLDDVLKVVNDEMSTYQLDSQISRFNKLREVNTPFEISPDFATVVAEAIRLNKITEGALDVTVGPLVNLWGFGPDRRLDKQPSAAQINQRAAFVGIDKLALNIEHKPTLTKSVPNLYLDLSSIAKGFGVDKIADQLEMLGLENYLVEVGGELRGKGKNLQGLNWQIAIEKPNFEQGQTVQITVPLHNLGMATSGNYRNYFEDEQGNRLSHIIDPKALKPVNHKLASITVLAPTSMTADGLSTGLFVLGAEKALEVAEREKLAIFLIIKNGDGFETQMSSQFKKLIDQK

Ftp_Ab = target: T5, Ftp_Ab (Alcanivorax borkumensis, UniProt Q0VQR2); assay: UV-visible spectrum of protein as isolated; assay type: binding; conditions: co-purified flavin, nonstoichiometric; buffer A, pH 7.5
T5 construct: gene apbE; residues 21-338, signal peptide and acylated Cys removed, N-terminal TEV-cleavable His6 tag (pSpeedET), E. coli
T5 sequence (Q0VQR2 20-337): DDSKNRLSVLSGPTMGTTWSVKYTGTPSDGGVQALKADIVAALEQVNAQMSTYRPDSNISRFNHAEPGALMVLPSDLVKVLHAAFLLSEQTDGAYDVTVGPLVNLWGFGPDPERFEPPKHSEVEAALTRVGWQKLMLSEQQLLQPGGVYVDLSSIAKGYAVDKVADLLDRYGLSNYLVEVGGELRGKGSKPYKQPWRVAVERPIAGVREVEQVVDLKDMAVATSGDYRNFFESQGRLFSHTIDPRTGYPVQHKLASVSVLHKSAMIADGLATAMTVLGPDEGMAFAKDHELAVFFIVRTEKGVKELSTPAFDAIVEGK

Ftp_Td = target: T6, Ftp_Td (Treponema denticola, UniProt Q73JG1); assay: FAD pyrophosphatase assay, FMN fluorescence; assay type: biochemical; conditions: 10 uM FAD, 5 mM MgCl2, pH 7.5; single turnover
T6 construct: gene TDE_2614; residues 28-372, signal peptide and acylated Cys removed, N-terminal TEV-cleavable His6 tag (pSpeedET), E. coli
T6 sequence (Q73JG1 28-371): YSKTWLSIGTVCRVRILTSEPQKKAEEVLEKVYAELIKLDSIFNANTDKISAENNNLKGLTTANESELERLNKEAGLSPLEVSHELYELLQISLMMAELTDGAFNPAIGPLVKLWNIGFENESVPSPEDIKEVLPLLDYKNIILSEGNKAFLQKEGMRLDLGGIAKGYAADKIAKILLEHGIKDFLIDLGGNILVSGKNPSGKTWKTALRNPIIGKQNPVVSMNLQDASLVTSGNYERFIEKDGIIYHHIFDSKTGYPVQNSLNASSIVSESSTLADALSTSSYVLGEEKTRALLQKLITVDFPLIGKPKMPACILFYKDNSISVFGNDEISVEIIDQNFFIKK

Ftp_Ef = target: T7, Ftp_Ef (Enterococcus faecalis, UniProt Q82Z24); assay: FAD pyrophosphatase assay, FMN fluorescence; assay type: biochemical; conditions: 10 uM FAD, 5 mM MgCl2, pH 7.5; single turnover
T7 construct: gene EF_3255; residues 21-356, signal peptide and acylated Cys removed, N-terminal TEV-cleavable His6 tag (pSpeedET), E. coli
T7 sequence (Q82Z24 22-355): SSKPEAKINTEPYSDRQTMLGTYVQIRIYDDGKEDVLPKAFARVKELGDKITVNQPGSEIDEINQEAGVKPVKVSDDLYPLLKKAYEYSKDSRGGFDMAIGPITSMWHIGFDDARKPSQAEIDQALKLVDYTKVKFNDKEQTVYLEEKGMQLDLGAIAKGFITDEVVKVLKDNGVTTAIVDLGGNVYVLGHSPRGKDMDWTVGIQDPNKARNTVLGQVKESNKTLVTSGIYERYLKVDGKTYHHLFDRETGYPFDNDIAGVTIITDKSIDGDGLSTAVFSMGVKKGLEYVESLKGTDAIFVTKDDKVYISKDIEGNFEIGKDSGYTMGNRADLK

NqrC_So = target: T8, NqrC_So (Shewanella oneidensis, UniProt Q8EID8); assay: crystal structure, […] A; assay type: binding; conditions: covalent phosphoester-threonyl-FMN at T225, formed in vitro by Ftp_So from FAD and Mg2+
T8 construct: gene nqrC; residues 32-265, without N-terminal membrane anchor; recloned into pProEx HTb; His tag cut with TEV after flavinylation
T8 sequence (Q8EID8 32-264): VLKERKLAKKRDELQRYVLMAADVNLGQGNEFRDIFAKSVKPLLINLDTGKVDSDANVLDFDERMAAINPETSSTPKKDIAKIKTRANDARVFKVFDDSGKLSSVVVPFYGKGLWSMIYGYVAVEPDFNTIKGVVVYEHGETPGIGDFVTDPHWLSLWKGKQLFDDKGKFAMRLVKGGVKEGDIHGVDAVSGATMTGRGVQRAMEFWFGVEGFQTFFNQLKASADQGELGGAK

Compound: Nc1ncnc2c1ncn2[C@@H]1O[C@H](COP(=O)(O)OP(=O)(O)O)[C@@H](O)[C@H]1O [ADP]
- crystal structure, 1.85-1.90 A; also inhibits FAD pyrophosphatase activity (Ftp_Ec [1]): we obtained a crystal structure of the ADP complex with two metals bound

Compound: Cc1cc2nc3c(=O)[nH]c(=O)nc-3n(C[C@H](O)[C@H](O)[C@H](O)COP(=O)(O)OP(=O)(O)OC[C@H]3O[C@@H](n4cnc5c(N)ncnc54)[C@H](O)[C@@H]3O)c2cc1C [FAD]
- fluorescence decrease on FAD binding; flavinylation gel (Ftp_Ec [2]): wild‐type Ftp_Ec (in orange) binds FAD as demonstrated by a decrease in the emission fluorescence
- FAD pyrophosphatase assay, FMN fluorescence (Ftp_Lm): all nonyellow Ftps showed single‐turnover kinetics of FAD pyrophosphatase activity
- UV-visible spectrum of protein as isolated (Ftp_Hd): purified as yellow, flavin‐bound forms (holoproteins)
- UV-visible spectrum of protein as isolated (Ftp_Ab): purified as yellow, flavin‐bound forms (holoproteins)
- FAD pyrophosphatase assay, FMN fluorescence (Ftp_Td): all nonyellow Ftps showed single‐turnover kinetics of FAD pyrophosphatase activity
- FAD pyrophosphatase assay, FMN fluorescence (Ftp_Ef): all nonyellow Ftps showed single‐turnover kinetics of FAD pyrophosphatase activity

Compound: Cc1cc2nc3c(=O)[nH]c(=O)nc-3n(C[C@H](O)[C@H](O)[C@H](O)COP(=O)(O)O)c2cc1C [FMN]
- crystal structure, 1.76 A (NqrC_So): The modified threonine (T225) lies at the N‐terminal end of the C‐terminal alpha helix
